Calls of active or inactive are those of the source. The rule behind the calls is not given here.
What was measured:
Oryctolagus cuniculus [1] = test: Cardiovascular activity in Albino rabbit assessed as change in heart rate tested at basal heart rate of 180 beats/min at 1.0 mg/kg, iv by physiograph 4; format: functional
Oryctolagus cuniculus [2] = test: Cardiovascular activity in Albino rabbit assessed as change in heart rate tested at basal heart rate of 170 beats/min at 0.25 mg/kg, iv by physiograph 4; format: functional
Oryctolagus cuniculus [3] = test: Cardiotoxicity in iv dosed Albino rabbit assessed as time to produce arrhythmias tested at basal heart rate of 180 beats/min; format: toxicity, organism-based; conditions: in vivo
Oryctolagus cuniculus [4] = test: Cardiovascular activity in Albino rabbit assessed as change in heart rate tested at basal heart rate of 170 beats/min at 0.50 mg/kg, iv by physiograph 4; format: functional; conditions: dose 0.5 mg/kg
Oryctolagus cuniculus [5] = test: Cardiovascular activity in Albino rabbit assessed as change in heart rate tested at basal heart rate of 170 beats/min at 0.10 mg/kg, iv by physiograph 4; format: functional; conditions: dose 0.1 mg/kg
Oryctolagus cuniculus [6] = test: Cardiotoxicity in iv dosed Albino rabbit assessed as drug level to produce arrhythmias tested at basal heart rate of 180 beats/min; format: toxicity, organism-based; conditions: in vivo
Oryctolagus cuniculus [7] = test: Cardiotoxicity in iv dosed Albino rabbit assessed as drug level to produce arrhythmias tested at basal heart rate of 170 beats/min; format: toxicity, organism-based; conditions: in vivo
Oryctolagus cuniculus [8] = test: Cardiovascular activity in Albino rabbit assessed as change in heart rate tested at basal heart rate of 170 beats/min at 1.0 mg/kg, iv by physiograph 4; format: functional
Oryctolagus cuniculus [9] = test: Cardiotoxicity in iv dosed Albino rabbit assessed as time to produce arrhythmias tested at basal heart rate of 170 beats/min; format: toxicity, organism-based; conditions: in vivo
[10] = Arrhythmogenic activity in albino guinea pig atria after repeated atrial washing; format: tissue-based, Cavia porcellus, Cardiac atrium
Oryctolagus cuniculus [11] = test: Cardiotoxicity in iv dosed Albino rabbit assessed as time to produce arrhythmias tested at basal heart rate of 190 beats/min; format: toxicity, organism-based; conditions: in vivo
Oryctolagus cuniculus [12] = test: Cardiovascular activity in Albino rabbit assessed as change in heart rate tested at basal heart rate of 190 beats/min at 0.25 mg/kg, iv by physiograph 4; format: functional
Oryctolagus cuniculus [13] = test: Cardiovascular activity in Albino rabbit assessed as change in heart rate tested at basal heart rate of 190 beats/min at 0.10 mg/kg, iv by physiograph 4; format: functional; conditions: dose 0.1 mg/kg
Cavia porcellus [14] = species: Cavia porcellus; test: Cardiovascular activity in albino guinea pig atria assessed as increase in heart rate by physiograph 4; format: functional, tissue-based; conditions: Cardiac atrium
Oryctolagus cuniculus [15] = test: Cardiovascular activity in Albino rabbit assessed as change in heart rate tested at basal heart rate of 190 beats/min at 1.0 mg/kg, iv by physiograph 4; format: functional
[16] = Arrhythmogenic activity in albino guinea pig atria at 100 uM; format: tissue-based, Cavia porcellus, Cardiac atrium
Cavia porcellus [17] = species: Cavia porcellus; test: Cardiovascular activity in albino guinea pig atria assessed as increase in heart rate at 100 uM by physiograph 4; format: functional, tissue-based; conditions: Cardiac atrium
[18] = Arrhythmogenic activity in albino guinea pig atria at 10 uM after repeated atrial washing; format: tissue-based, Cavia porcellus, Cardiac atrium
Oryctolagus cuniculus [19] = test: Cardiovascular activity in Albino rabbit assessed as change in heart rate tested at basal heart rate of 190 beats/min at 0.50 mg/kg, iv by physiograph 4; format: functional; conditions: dose 0.5 mg/kg
Oryctolagus cuniculus [20] = test: Cardiotoxicity in iv dosed Albino rabbit assessed as drug level to produce arrhythmias tested at basal heart rate of 190 beats/min; format: toxicity, organism-based; conditions: in vivo
Oryctolagus cuniculus [21] = test: Cardiotoxicity in iv dosed Albino rabbit assessed as drug level to produce arrhythmias tested at basal heart rate of 150 beats/min upto 30 mins; format: toxicity, organism-based; conditions: in vivo, 0.5 h
Oryctolagus cuniculus [22] = test: Cardiotoxicity in iv dosed Albino rabbit assessed as drug level to produce arrhythmias tested at basal heart rate of 150 beats/min; format: toxicity, organism-based; conditions: in vivo
[23] = Arrhythmogenic activity in albino guinea pig atria at 30 uM; format: tissue-based, Cavia porcellus, Cardiac atrium
Oryctolagus cuniculus [24] = test: Cardiovascular activity in Albino rabbit assessed as sinusoidal heart rate tested at basal heart rate of 150 beats/min at 0.010 mg/kg, iv by physiograph 4; format: functional; conditions: dose 0.01 mg/kg
Oryctolagus cuniculus [25] = test: Cardiovascular activity in Albino rabbit assessed as sinusoidal heart rate tested at basal heart rate of 150 beats/min at 0.005 mg/kg, iv by physiograph 4; format: functional
Oryctolagus cuniculus [26] = test: Cardiotoxicity in iv dosed Albino rabbit assessed as time to produce arrhythmias tested at basal heart rate of 150 beats/min; format: toxicity, organism-based; conditions: in vivo
Oryctolagus cuniculus [27] = test: Cardiovascular activity in Albino rabbit assessed as change in heart rate tested at basal heart rate of 180 beats/min at 5.0 mg/kg, iv by physiograph 4; format: functional
Oryctolagus cuniculus [28] = test: Cardiovascular activity in Albino rabbit assessed as change in heart rate tested at basal heart rate of 180 beats/min at 0.50 mg/kg, iv by physiograph 4; format: functional; conditions: dose 0.5 mg/kg
Oryctolagus cuniculus [29] = test: Cardiovascular activity in Albino rabbit assessed as change in heart rate tested at basal heart rate of 180 beats/min at 0.25 mg/kg, iv by physiograph 4; format: functional
Oryctolagus cuniculus [30] = test: Cardiovascular activity in Albino rabbit assessed as change in heart rate tested at basal heart rate of 180 beats/min at 0.10 mg/kg, iv by physiograph 4; format: functional; conditions: dose 0.1 mg/kg
Oryctolagus cuniculus [31] = test: Cardiovascular activity in Albino rabbit assessed as sinusoidal heart rate tested at basal heart rate of 180 beats/min at 0.05 mg/kg, iv by physiograph 4; format: functional

Compound: CCN1C[C@]2(OC(=O)c3ccccc3N)CC[C@H](OC)[C@@]34[C@@H]2C[C@H]([C@@H]13)[C@@]1(O)C[C@H](OC)[C@H]2C[C@@H]4[C@]1(O)[C@H]2OC
- Activity (Oryctolagus cuniculus [1]): 0 bpm
- Activity (Oryctolagus cuniculus [2]): 5 bpm
- Activity (Oryctolagus cuniculus [3]): 85 s
- Activity (Oryctolagus cuniculus [4]): 0 bpm
- Activity (Oryctolagus cuniculus [5]): 8 bpm
- Activity (Oryctolagus cuniculus [6]): 1 mg/kg
- Activity (Oryctolagus cuniculus [7]): 1 mg/kg
- Activity (Oryctolagus cuniculus [8]): 0 bpm
- Activity (Oryctolagus cuniculus [9]): 52 s

Compound: CCN1C[C@]2(OC(=O)c3ccccc3NC(C)=O)CC[C@H](OC)[C@@]34[C@@H]2C[C@@H]([C@@H]13)[C@@]1(O)C[C@H](OC)[C@H]2C[C@@H]4[C@]1(O)[C@H]2OC
- Activity [10]: Non-toxic
- Activity (Oryctolagus cuniculus [11]): 45 s
- Activity (Oryctolagus cuniculus [12]): -5 bpm
- Activity (Oryctolagus cuniculus [13]): 0 bpm
- Activity (Cavia porcellus [14]): inactive
- Activity (Oryctolagus cuniculus [15]): -35 bpm
- Activity [16]: Toxic
- Activity (Cavia porcellus [17]): inactive
- Activity [18]: Toxic
- Activity (Oryctolagus cuniculus [19]): -30 bpm
- Activity (Oryctolagus cuniculus [20]): 1 mg/kg

Compound: CCN1C[C@]2(COC)[C@H](O)C[C@H](OC)[C@@]34[C@@H]5C[C@@]6(O)[C@H](OC(=O)c7ccccc7)[C@@H]5[C@@](OC(C)=O)([C@@H]([C@H](OC)[C@H]23)[C@@H]14)[C@@H](O)[C@@H]6OC [ACONITINE]
- Activity (Oryctolagus cuniculus [11]): 12 s
- Activity (Oryctolagus cuniculus [21]): 0.005 mg/kg
- Activity (Cavia porcellus [14]): Dose-dependent effect
- Activity (Oryctolagus cuniculus [22]): 0.01 mg/kg
- Activity [23]: Toxic
- Activity (Oryctolagus cuniculus [24]): 170 bpm
- Activity (Oryctolagus cuniculus [25]): 110 bpm
- Activity (Oryctolagus cuniculus [26]): 30 s
- Activity (Oryctolagus cuniculus [20]): 0.1 mg/kg

Compound: CCN1C[C@]2(COC(=O)c3ccccc3N)CC[C@H](OC)[C@]34C1[C@](O)([C@@H](OC)[C@H]23)[C@@]1(O)C[C@H](OC)[C@H]2C[C@@H]4[C@@H]1[C@H]2OC [ANTHRANOYLLYCOCTONINE]
- Activity (Oryctolagus cuniculus [2]): 8 bpm
- Activity (Oryctolagus cuniculus [4]): 5 bpm
- Activity (Oryctolagus cuniculus [8]): -5 bpm

Compound: CCN1C[C@]2(COC(=O)c3ccccc3NC(=O)CCC(N)=O)CC[C@H](OC)[C@@]34[C@@H]5C[C@H]6[C@H](OC)[C@@H]5[C@](O)(C[C@@H]6OC)[C@](O)([C@@H](OC)[C@H]23)[C@@H]14 [AVADHARIDINE]
- Activity (Oryctolagus cuniculus [1]): 0 bpm
- Activity (Oryctolagus cuniculus [27]): -10 bpm
- Activity (Oryctolagus cuniculus [28]): 0 bpm
- Activity (Oryctolagus cuniculus [29]): 5 bpm
- Activity (Oryctolagus cuniculus [30]): 8 bpm
- Activity (Oryctolagus cuniculus [31]): 0 bpm

— ChEMBL document CHEMBL1158659, “The alkaloids of Delphinium cashmirianum” (J Nat Prod, 1979)
